Reference: patent publication US20190046490A1, “METHODS OF TREATING LACTOSE INTOLERANCE” (Nogra Pharma Limited, priority 2016, published 2019)

Tests used:
[1] = test system: Caco-2 cells; test: Glucose uptake assay (2-DG6P) in Caco-2 cells; assay type: cell-based, human; settings: 1 mM, 24 h
Description: Glucose uptake was evaluated by using the glucose uptake colorimetric assay kit (Sigma-Aldrich) according to the manufacturer's instructions. Briefly, Caco-2 cells were seeded into a 96-well plate at a density of 30,000 cells per well. Cells were serum deprived for 16 hours prior to stimulation in order to synchronize the cells. Cells were treated with GED (1 mM) or pioglitazone (1 μM) for 24 h. Cells were then washed 3 times with PBS and were glucose-starved by incubating with 100 μl of KRPH buffer (Krebs-Ringer-Phosphate-HEPES (KRPH) Buffer—20 mM HEPES, 5 mM KH2PO4, 1 mM MgSO4, 1 mM CaCl2, 136 mM NaCl, and 4.7 mM KCl, pH 7.4) containing 2% BSA for 40 minutes. 10 μl of 2-deoxyglucose (2-DG; 10 mM) was then added and incubation was continued for 20 minutes. 2-DG is taken up by the cells and phosphorylated by hexokinase to 2-DG6P, which cannot be further metabolized and accumulates in cells. Following incubation, cells were washed 3 times with PBS and lysed with 80 μl of the extraction buffer provided. The amount of 2-DG6P (which is directly proportional to glucose uptake by the cells) was determined by a colorimetric detection assay according to the manufacturer's protocol.

[2] = test system: DR2 response element of the human LCT gene promoter; test: Luciferase reporter gene assay with LCT promoter DR2 fragment in Caco-2 cells; assay type: cell-based
Description: A 321 bp genomic fragment (corresponding to the first 321 bp upstream to the transcription start site of the human lactase gene) was cloned in the pGL4-Luc reporter vector using XhoI and Hind III restriction sites introduced in “Hs-Prom-0.3 Kb sens” and “Hs-Prom-0.3 Kb anti-sens” oligonucleotides respectively. This construct and the empty vector control were transiently transfected in Caco-2 cells using Nucleofector™ Technology. Six hours post-transfection, cells were treated with PPARγ modulator for 12 hours. Luciferase activity was measured using the luciferase assay kit (Promega) in a Wallac Victor2 ™ 1420 multilabel counter (Perkin Elmer).

[3] = test system: lactase; test: Lactase expression and activity in short term cultures of human duodenal biopsies; assay type: cell-based; settings: exposure for 6 hours
[4] = test system: LCT; test: LCT mRNA expression and activity in proximal small intestine of mice after oral GED; assay type: in vivo; settings: weaned C57BL/6 mice, 30 mg/kg daily by gavage for 7 days
Description: Expression of genes of interest was quantified by quantitative PCR (qPCR) of corresponding reverse transcribed mRNA. One μg of total RNA was reverse-transcribed into cDNA using the High Capacity cDNA Archive kit (Applied Biosystems). Amplification was performed using an ABI PRISM 7000 sequence detection system (Applied Biosystem) using Power SYBR® Green PCR master Mix (Applied Biosystem). Primer pairs for each human transcript were chosen with qPrimer depot software (at primerdepot.nci.nih.gov.). Quantification of qPCR signals was performed using ΔCt relative quantification method using GAPDH as a reference gene for human and rat samples and β-Actin for mouse samples. Values were represented in terms of relative quantity of mRNA level variation or fold increase compared to control conditions.
Lactase activity was evaluated by using a glucose oxidase method (Glucose Assay Kit, Sigma). […] For Caco-2 cells, lactase activity was determined directly from the cell monolayer. […] The reaction was stopped with 100 μl of H2SO4 and read by spectrophotometry at 450 nm. When lactase activity was determined from intestinal sample, tissue samples were first dounce-homogenized in 0.9% NaCl on crushed ice. […] For each experiment, the background attributed to the remaining glucose in the samples was measured by incubating cells or cell extracts in lactose-free buffer. […]

**Q.** What does the source list for COC(Cc1ccc(N)cc1)C(=O)O (stereo not shown) [GED, 3-(4′-aminophenyl)2-methoxypropionic acid]?
**A.** glucose uptake of Caco-2 cells [1]: did not significantly alter; luciferase activity compared to untreated cells ([2]; Caco-2 cells transfected with pGL4Luc Prom LCT construct): significantly increased; luciferase activity ([2]; Caco-2 cells with luciferase construct lacking the DR2 sequence (pGL4Luc)): No significant change; lactase expression [3]: significant increase; lactase activity ([3]; data not shown): significant increase; LCT activity in the proximal part of the small intestine [4]: significantly increased; LCT expression in the proximal part of the small intestine [4]: significantly increased
